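Grown in 96-well plates, cells were treated for 48 hours with each compound at five concentrations. Insufficient inhibition: endpoint recorded as highest concentration tested. The concentration for full growth arrest is given as TGI.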 Some results are limits rather than exact numbers.

The record followed here is PubChem BioAssay (NCI).

What all share (test): NCI-60 cell line screen, 48 h
Assay [1] deals with MDA-N.
The test system of assay [2] is BT-549 breast.
The subject of assay [3] is HL-60(TB) leukemia.
In assay [4] the test system is HCC-2998 colon.
Assay [5] concerns ACHN renal.
Assay [6] has as its system MCF7 breast.
Assay [7] concerns OVCAR-5 ovarian.
Assay [8] deals with MALME-3M melanoma.
Assay [9] relates to NCI-H23 lung.
The test system of assay [10] is SF-268 CNS.

With `C=C1C(=O)O[C@H]2C/C(C=O)=C\[C@H]3O[C@H]3/C(COC(=O)C(C)C)=C/CC12` (stereo partly drawn), the TGI in assay [1] came out at 13.4 µM; in assay [2] it was 24.8 µM; in [3], 5.54 µM; in [4] it was 27.2 µM; in [5], 6.59 µM; in assay [6], 50 µM. Also, the TGI in [7] came out at 7.48 µM; in [8], 24.2 µM; in [9], 20.3 µM.

`CN(C)C=Nc1nncc2n[nH]nc12`: the TGI in assay [10], in assay [1], in assay [2], in assay [3], in assay [5] and in [6] was over 100 µM each time. For the same compound, the TGI in assay [7] and in [9] was over 100 µM in each case.

For `COc1ccc(NC(=S)NNC(=O)c2cc(-c3ccccc3)nc3ccccc23)cc1`, the TGI in assay [10] worked out at 90.1 µM; in [1] it was 15.5 µM; in [2], 39.8 µM; in assay [4] it was 24.6 µM; in assay [5], 87.3 µM; in [6], 17 µM. Further, the results for the TGI in [7], in [8] and in assay [9] were 58.8 µM, 54 µM and 30.6 µM, respectively.

Regarding `Cc1ccc(S(=O)(=O)N2CCN(CCO)CCN(S(=O)(=O)c3ccc(C)cc3)CCN(CCO)CC2)cc1`, the TGI was over 100 µM in assay [10]; 93.6 µM in [1]; over 100 µM in assay [2]; 37.3 µM in [3]; 29.7 µM in assay [4]; 90.9 µM in assay [5]. Further, the values for the TGI in assay [6], in assay [7] and in assay [9] were 28.2 µM, over 100 µM and 45.9 µM, respectively.

`CC(C)c1nccn1Cc1ccc(Cl)cc1Cl`: the TGI in [10] was over 100 µM; in [1], over 100 µM; in [2], over 100 µM; in assay [4] it was 88.6 µM; in [5] it was over 100 µM; in assay [6] it was over 100 µM. Further, the TGI in assay [7], in [8] and in [9] was over 100 µM throughout.

Consider `Cc1cc(C)c2c(c1)CC1(Cc3c(C)cc(C)cc3C1=O)C2=O` (stereo not drawn), for which the TGI in assay [10], in assay [1], in assay [2], in [3], in [4] and in [5] was over 100 µM in each case. The TGI in assay [6], in [7] and in assay [8] was over 100 µM each time.

With `COC(=O)C1=C(C)NC2(C)OC(C)(O)C(C(C)=O)C12C(C)=O` (stereo not drawn), the TGI in assay [10], in assay [1], in [2], in [3], in [5] and in assay [6] was over 100 µM in each case. The TGI is over 100 µM in assay [7], 50.9 µM in assay [8] and over 100 µM in assay [9].

Consider `COc1ccc(C2NC(=O)Nc3c2c(=O)oc2c3ccc3ccccc32)cc1` (stereo not drawn), for which the TGI in [10], in [1], in assay [2], in assay [3], in assay [5] and in [6] was over 100 µM each time. Further, the TGI in assay [7], in assay [8] and in assay [9] was over 100 µM throughout.

Turning to `COC(=O)/C=C\C(C#N)(C#N)N=Cc1ccsc1`, the TGI in assay [10] was determined as 46.2 µM; in assay [1] it was 8.66 µM; in [2], 5.7 µM; in assay [4], 29.6 µM; in assay [5] it was 2.72 µM; in assay [6], 5.05 µM. The TGI in [7] was determined as 16.2 µM; in assay [8], 3.5 µM; in assay [9], 22.1 µM.

Take `O=c1/c(=C/c2ccc(-c3ccc(Cl)cc3Cl)o2)sc2n1[C@@H](c1ccc3c(c1)OCO3)C=C(c1cc(F)c(Cl)cc1Cl)N=2`: the TGI in assay [10], in [1], in assay [2], in assay [3], in assay [5] and in [6] was over 100 µM throughout. The TGI in assay [7], in assay [8] and in assay [9] was over 100 µM in each case.

Consider `CSC1NNC2(C(=O)N1)c1ccccc1-c1ccccc12` (stereo not drawn), for which the TGI in assay [10], in assay [1], in [2], in assay [3], in assay [4] and in [5] was over 10 µM each time. The TGI in [6], in assay [8] and in assay [9] was over 10 µM in each case.

As to `COc1ccccc1N1C(=O)/C(=C\c2cccc(Oc3ccccc3)c2)S(=O)(=O)C1c1ccccc1` (stereo not drawn), the TGI in assay [1] is over 100 µM; in [2] it was 83.6 µM; in [4], over 100 µM; in assay [5] it was over 100 µM; in assay [6], over 100 µM; in assay [7] it was over 100 µM. Moreover, the TGI in [8] and in [9] was over 100 µM in each case.

Consider `CC(C)CC(NC(=O)C(COc1ccc([N+](=O)[O-])cc1)Cc1ccccc1)C(=O)Nc1ccccc1` (stereo not drawn), for which the TGI in assay [1] was over 100 µM; in [2] it was 29.7 µM; in [3], over 100 µM; in assay [4], 80.2 µM; in assay [5], over 100 µM; in assay [6], over 100 µM. The results for the TGI in assay [7], in assay [8] and in [9] were over 100 µM, 18 µM and 28.7 µM, respectively.

In the case of `CC1(C)CC(=O)C(=CN2C(=O)CNC2=S)C(=O)C1`, the TGI in assay [10], in assay [1], in assay [2], in [3], in [4] and in [5] was over 100 µM throughout. Also, the TGI in assay [6], in [7] and in assay [9] was over 100 µM throughout.

On to `COC(=O)C1[C@H](C(=O)OC)C1(Br)CBr` (stereo partly drawn), for which the TGI in assay [10], in [1], in assay [2], in [3], in assay [4] and in assay [5] was over 100 µM each time. Further, the TGI in [6], in assay [7] and in assay [9] was over 100 µM each time.
